Experimental data from patent publication US11697648B2, “Fused pyrimidine pyridinone compounds as JAK inhibitors” (THERAVANCE BIOPHARMA R&D IP, LLC, priority 2019, dated 2023).

How the values were obtained:
[1] = target: JAK2 (Homo sapiens (Human), UniProt O60674); test: Biochemical JAK2 kinase assay (LanthaScreen)
Description: (§1) Assay 1: Biochemical JAK and Tyk2 Kinase Assays
(§2) A panel of four LanthaScreen JAK biochemical assays (JAK1, 2, 3 and Tyk2) were carried in a common kinase reaction buffer (50 mM HEPES, pH 7.5, 0.01% Brij-35, 10 mM MgCl2, and 1 mM EGTA). Recombinant GST-tagged JAK enzymes and a GFP-tagged STAT1 peptide substrate were obtained from Life Technologies.
(§3) Serially or discretely diluted compounds were pre-incubated with each of the four JAK enzymes and the substrate in white 384-well microplates (Corning) at ambient temperature for 1 h. ATP was subsequently added to initiate the kinase reactions in 10 μL total volume, with 1% DMSO. […] Kinase reactions were allowed to proceed for 1 hour at ambient temperature before a 10 μL preparation of EDTA (10 mM final concentration) and Tb-anti-pSTAT1 (pTyr701) antibody (Life Technologies, 2 nM final concentration) in TR-FRET dilution buffer (Life Technologies) was added. The plates were allowed to incubate at ambient temperature for 1 h before being read on the EnVision reader (Perkin Elmer). Emission ratio signals (520 nm/495 nm) were recorded and utilized to calculate the percent inhibition values based on DMSO and background controls.
(§4) For dose-response analysis, percent inhibition data were plotted vs. compound concentrations, and IC50 values were determined from a 4-parameter robust fit model with the Prism software (GraphPad Software). Results were expressed as pIC50 (negative logarithm of IC50) and subsequently converted to pKi (negative logarithm of dissociation constant, Ki) using the Cheng-Prusoff equation.

[2] = target: Tyk2 (Homo sapiens (Human), UniProt P29597); test: Biochemical Tyk2 kinase assay (LanthaScreen)
Description: as §1, §2, §3, §4

[3] = target: JAK1 (Homo sapiens (Human), UniProt P23458); test: Biochemical JAK1 kinase assay (LanthaScreen)
Description: as §1, §2, §3, §4

[4] = target: JAK3 (Homo sapiens (Human), UniProt P52333); test: Biochemical JAK3 kinase assay (LanthaScreen); conditions: for JAK3 (pKi)-JAK1 (pKi): selectivity JAK3 over JAK1, difference of pKi
Description: as §1, §2, §3, §4

[5] = test system: IL-2 stimulated STAT5 phosphorylation in Tall-1 human T cell line (JAK3); test: Cellular JAK3 potency assay: inhibition of IL-2 stimulated pSTAT5 in Tall-1 T cells; type: cell-based; conditions: IL-2 stimulated pSTAT5, Tall-1 T cells
Description: Assay 2: Cellular JAK3 Potency Assay: Inhibition of IL-2 Stimulated pSTAT5 in Tall-1 T Cells
The potency of test compounds for inhibition of interleukin-2 (IL-2) stimulated STAT5 phosphorylation was measured in the Tall-1 human T cell line (DSMZ) using AlphaLisa. Because IL-2 signals through JAK3, this assay provides a measure of JAK3 cellular potency.
Phosphorylated STAT5 was measured via the AlphaLISA SureFire Ultra pSTAT5 (Tyr694/699) kit (PerkinElmer).
Human T cells from the Tall-1 cell line were cultured in a 37° C., 5% CO2 humidified incubator in RPMI (Life Technologies) supplemented with 15% Heat Inactivated Fetal Bovine Serum (FBS, Life Technologies), 2 mM Glutamax (Life Technologies), 25 mM HEPES (Life Technologies) and 1× Pen/Strep (Life Technologies). Compounds were serially diluted in DMSO and dispensed acoustically to empty wells. Assay media (phenol red-free DMEM (Life Technologies) supplemented with 10% FBS (ATCC)) was dispensed (4 μL/well) and plates shaken at 900 rpm for 10 inns. Cells were seeded at 45,000 cells/well in assay media (4 μL/well), and incubated at 37° C., 5% CO2 for 1 hour, followed by the addition of IL-2 (R&D Systems; final concentration 300 ng/ml) in pre-warmed assay media (4 μL) for 30 minutes. After cytokine stimulation, cells were lysed with 6 ul of 3× AlphaLisa Lysis Buffer (PerkinElmer) containing 1× PhosStop and Complete tablets (Roche). The lysate was shaken at 900 rpm for 10 minutes at room temperature (RT). Phosphorylated STAT5 was measured via the pSTAT5 AlphaLisa kit (PerkinElmer). Freshly prepared acceptor bead mixture was dispensed onto lysate (5 μL) under green filtered <100 lux light. Plates were shaken at 900 rpm for 2 mins, briefly spun down, and incubated for 2 hrs at RT in the dark. Donor beads were dispensed (5 μL) under green filtered <100 lux light. Plates were shaken at 900 rpm for 2 minutes, briefly spun down, and incubated overnight at RT in the dark. Luminescence was measured with excitation at 689 nm and emission at 570 nm using an EnVision plate reader (PerkinElmer) under green filtered <100 lux light.
To determine the inhibitory potency of test compounds in response to IL-2, the average emission intensity of beads bound to pSTAT5 was measured in a human T cell line. IC50 values were determined from analysis of the inhibition curves of signal intensity versus compound concentration. Data are expressed as pIC50 (negative decadic logarithm IC50) values (mean standard deviation).

Sequence of JAK2 (O60674 whole entry): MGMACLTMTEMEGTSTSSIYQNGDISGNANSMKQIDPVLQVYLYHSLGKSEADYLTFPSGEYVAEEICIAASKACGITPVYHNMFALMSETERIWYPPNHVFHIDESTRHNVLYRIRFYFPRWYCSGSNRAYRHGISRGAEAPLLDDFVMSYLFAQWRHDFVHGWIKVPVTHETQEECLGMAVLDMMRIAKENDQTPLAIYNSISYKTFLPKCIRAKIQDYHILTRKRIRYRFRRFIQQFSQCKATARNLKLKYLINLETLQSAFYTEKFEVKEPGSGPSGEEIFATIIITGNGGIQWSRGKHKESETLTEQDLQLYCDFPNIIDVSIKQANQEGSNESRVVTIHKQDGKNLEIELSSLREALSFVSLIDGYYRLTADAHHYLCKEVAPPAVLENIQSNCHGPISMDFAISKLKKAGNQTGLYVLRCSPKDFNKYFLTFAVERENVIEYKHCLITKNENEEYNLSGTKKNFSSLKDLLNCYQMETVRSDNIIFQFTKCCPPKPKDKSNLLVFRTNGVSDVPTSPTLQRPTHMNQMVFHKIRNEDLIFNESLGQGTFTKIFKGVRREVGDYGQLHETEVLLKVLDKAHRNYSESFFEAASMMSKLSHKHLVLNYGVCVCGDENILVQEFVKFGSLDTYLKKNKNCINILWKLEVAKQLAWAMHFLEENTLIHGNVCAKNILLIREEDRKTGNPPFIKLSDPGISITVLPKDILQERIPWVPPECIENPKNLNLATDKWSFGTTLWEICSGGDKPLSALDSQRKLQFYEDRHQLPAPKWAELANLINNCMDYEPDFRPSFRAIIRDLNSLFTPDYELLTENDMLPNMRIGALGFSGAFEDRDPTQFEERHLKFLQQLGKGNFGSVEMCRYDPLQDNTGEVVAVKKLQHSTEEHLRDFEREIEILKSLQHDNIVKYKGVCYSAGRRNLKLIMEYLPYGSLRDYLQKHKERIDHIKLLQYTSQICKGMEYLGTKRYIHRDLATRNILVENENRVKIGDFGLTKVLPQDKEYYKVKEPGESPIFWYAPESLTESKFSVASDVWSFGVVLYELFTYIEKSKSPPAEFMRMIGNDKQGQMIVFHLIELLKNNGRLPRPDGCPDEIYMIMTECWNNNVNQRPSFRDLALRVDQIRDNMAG
Sequence of JAK1 (P23458 whole entry): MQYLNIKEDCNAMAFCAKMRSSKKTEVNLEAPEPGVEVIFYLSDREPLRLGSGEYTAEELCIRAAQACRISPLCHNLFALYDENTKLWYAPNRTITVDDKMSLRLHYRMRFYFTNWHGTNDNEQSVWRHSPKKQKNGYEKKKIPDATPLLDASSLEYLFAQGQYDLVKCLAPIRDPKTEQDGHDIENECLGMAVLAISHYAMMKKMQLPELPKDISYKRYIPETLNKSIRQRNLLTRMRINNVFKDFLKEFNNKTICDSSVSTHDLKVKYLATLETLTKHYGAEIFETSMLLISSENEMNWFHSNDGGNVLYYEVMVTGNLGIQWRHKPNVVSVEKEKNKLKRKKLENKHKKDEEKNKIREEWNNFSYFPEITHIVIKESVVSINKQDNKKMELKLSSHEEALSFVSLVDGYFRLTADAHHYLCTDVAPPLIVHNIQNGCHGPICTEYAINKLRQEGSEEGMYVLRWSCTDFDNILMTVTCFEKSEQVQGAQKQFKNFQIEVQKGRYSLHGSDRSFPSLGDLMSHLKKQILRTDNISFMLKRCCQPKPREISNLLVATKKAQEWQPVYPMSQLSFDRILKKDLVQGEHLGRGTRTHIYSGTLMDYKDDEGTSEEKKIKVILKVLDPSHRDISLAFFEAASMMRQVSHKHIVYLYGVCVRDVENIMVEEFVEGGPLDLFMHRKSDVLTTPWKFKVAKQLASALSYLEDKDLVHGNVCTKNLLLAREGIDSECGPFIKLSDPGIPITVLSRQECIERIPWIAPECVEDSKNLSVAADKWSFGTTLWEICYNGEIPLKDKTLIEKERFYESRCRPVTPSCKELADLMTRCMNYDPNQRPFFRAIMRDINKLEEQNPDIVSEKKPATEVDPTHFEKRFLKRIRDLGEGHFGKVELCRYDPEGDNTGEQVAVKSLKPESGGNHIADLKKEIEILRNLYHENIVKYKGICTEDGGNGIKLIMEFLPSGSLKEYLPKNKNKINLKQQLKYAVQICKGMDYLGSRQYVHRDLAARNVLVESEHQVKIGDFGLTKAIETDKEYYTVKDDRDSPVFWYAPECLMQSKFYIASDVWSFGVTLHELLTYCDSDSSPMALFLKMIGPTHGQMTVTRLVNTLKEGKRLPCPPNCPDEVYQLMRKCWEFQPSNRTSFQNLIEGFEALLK
Sequence of JAK3 (P52333 whole entry): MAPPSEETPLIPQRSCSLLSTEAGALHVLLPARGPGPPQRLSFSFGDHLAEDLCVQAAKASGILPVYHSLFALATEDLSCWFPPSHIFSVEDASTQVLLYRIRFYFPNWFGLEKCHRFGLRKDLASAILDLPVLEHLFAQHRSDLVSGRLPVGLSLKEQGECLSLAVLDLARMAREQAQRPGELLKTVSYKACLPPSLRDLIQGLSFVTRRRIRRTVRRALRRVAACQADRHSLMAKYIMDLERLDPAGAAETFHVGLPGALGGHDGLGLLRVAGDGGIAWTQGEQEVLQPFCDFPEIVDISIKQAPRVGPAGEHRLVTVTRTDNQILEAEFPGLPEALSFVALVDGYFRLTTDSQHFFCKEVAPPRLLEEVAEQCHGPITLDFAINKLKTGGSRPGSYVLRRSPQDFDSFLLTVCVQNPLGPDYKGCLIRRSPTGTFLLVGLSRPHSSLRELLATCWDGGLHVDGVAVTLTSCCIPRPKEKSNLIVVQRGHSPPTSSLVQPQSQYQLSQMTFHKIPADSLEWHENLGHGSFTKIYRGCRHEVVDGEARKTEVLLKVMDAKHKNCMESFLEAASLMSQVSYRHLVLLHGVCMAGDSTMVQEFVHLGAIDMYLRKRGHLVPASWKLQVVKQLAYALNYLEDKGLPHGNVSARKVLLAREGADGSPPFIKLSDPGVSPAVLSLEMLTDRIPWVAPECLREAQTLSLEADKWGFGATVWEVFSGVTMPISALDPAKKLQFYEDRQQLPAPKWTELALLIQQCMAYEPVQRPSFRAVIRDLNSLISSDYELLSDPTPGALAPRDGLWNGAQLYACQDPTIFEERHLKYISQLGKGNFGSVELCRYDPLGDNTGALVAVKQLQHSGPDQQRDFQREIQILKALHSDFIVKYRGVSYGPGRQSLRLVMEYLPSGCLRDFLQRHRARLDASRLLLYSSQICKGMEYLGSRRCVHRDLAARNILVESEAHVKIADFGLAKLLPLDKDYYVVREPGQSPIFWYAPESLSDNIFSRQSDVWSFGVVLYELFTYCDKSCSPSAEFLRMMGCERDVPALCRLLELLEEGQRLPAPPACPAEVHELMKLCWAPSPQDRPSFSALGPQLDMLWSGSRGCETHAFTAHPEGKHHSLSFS
Sequence of Tyk2 (P29597 whole entry): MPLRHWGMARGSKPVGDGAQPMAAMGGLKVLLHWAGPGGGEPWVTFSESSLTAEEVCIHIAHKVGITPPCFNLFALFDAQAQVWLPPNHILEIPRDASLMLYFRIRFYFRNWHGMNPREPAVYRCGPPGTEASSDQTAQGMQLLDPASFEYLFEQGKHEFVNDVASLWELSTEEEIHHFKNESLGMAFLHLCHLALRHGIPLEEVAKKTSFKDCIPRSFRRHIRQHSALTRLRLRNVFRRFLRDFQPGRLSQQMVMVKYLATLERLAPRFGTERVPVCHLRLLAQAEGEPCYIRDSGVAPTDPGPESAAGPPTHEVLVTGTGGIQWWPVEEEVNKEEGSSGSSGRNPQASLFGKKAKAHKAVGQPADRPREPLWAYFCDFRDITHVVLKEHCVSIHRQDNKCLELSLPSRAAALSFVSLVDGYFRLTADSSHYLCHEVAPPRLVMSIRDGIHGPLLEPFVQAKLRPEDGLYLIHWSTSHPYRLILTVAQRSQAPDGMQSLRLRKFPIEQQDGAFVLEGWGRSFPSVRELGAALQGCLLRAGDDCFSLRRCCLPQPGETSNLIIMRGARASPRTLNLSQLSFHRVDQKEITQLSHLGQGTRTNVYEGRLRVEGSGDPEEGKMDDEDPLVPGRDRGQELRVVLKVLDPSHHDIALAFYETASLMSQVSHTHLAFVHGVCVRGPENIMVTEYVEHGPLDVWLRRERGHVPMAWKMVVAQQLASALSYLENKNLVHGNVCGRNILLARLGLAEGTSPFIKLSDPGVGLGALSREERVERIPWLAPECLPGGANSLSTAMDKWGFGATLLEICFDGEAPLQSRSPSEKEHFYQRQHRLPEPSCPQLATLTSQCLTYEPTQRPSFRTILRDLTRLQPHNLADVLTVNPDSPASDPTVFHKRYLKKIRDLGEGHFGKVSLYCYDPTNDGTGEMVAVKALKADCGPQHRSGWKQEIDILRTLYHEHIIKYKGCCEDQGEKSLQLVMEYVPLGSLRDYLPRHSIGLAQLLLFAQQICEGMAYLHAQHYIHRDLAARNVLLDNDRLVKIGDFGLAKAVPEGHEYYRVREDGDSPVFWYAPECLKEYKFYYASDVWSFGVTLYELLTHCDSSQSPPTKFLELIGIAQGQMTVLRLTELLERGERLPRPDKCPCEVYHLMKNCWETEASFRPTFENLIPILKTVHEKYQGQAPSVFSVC

Structure (SMILES)	JAK 2 (pKi) [1]	Tyk 2 (pKi) [2]	JAK 1 (pKi) [3]	JAK 3 (pKi) [4]	JAK3 (pKi)-JAK1 (pKi) [4]	Tall-1 (pIC50) [5]
C=CC(=O)N1CC(CCn2c(=O)ccc3cnc(Nc4ccc(N5CCOCC5)c(F)c4)nc32)C1 [Example 23]	E (E represents a pKi value of 7 or below (Ki of 100 nM or above))	E (E represents a pKi value of 7 or below (Ki of 100 nM or above))	E (E represents a pKi value of 7 or below (Ki of 100 nM or above))	B (B represents pKi value between 9 and 10 (Ki between 1 nM and 0.1 nM))	A (A represents a value of 3 or above)	B (B represents a pC50 value between 6.7 (included) and 7.5 (IC50 between 200 nM and 32 nM))
C=CC(=O)N1CCN(CCn2c(=O)ccc3cnc(Nc4cnn(C)c4)nc32)C(C)(C)C1 [Example 33]	E (E represents a pKi value of 7 or below (Ki of 100 nM or above))	E (E represents a pKi value of 7 or below (Ki of 100 nM or above))	E (E represents a pKi value of 7 or below (Ki of 100 nM or above))	A (A represents a pKi value≥10 (Ki≤0.1 nM))	A (A represents a value of 3 or above)	B (B represents a pC50 value between 6.7 (included) and 7.5 (IC50 between 200 nM and 32 nM))
C=CC(=O)N1CC(CCn2c(=O)ccc3cnc(Nc4cnn(-c5ccccc5)c4)nc32)C1 [Example 34]	E (E represents a pKi value of 7 or below (Ki of 100 nM or above))	E (E represents a pKi value of 7 or below (Ki of 100 nM or above))	E (E represents a pKi value of 7 or below (Ki of 100 nM or above))	B (B represents pKi value between 9 and 10 (Ki between 1 nM and 0.1 nM))	A (A represents a value of 3 or above)	B (B represents a pC50 value between 6.7 (included) and 7.5 (IC50 between 200 nM and 32 nM))
C=CC(=O)N1CCN(CCn2c(=O)ccc3cnc(Nc4ccc(N5CCN(C)CC5)nc4)nc32)CC1 [Example 37]	E (E represents a pKi value of 7 or below (Ki of 100 nM or above))	E (E represents a pKi value of 7 or below (Ki of 100 nM or above))	E (E represents a pKi value of 7 or below (Ki of 100 nM or above))	B (B represents pKi value between 9 and 10 (Ki between 1 nM and 0.1 nM))	A (A represents a value of 3 or above)	B (B represents a pC50 value between 6.7 (included) and 7.5 (IC50 between 200 nM and 32 nM))
C=CC(=O)N1CCN(CCn2c(=O)ccc3cnc(Nc4ccc(N5CCN(C)CC5)c(F)c4)nc32)CC1 [Example 39]	E (E represents a pKi value of 7 or below (Ki of 100 nM or above))	E (E represents a pKi value of 7 or below (Ki of 100 nM or above))	E (E represents a pKi value of 7 or below (Ki of 100 nM or above))	B (B represents pKi value between 9 and 10 (Ki between 1 nM and 0.1 nM))	A (A represents a value of 3 or above)	B (B represents a pC50 value between 6.7 (included) and 7.5 (IC50 between 200 nM and 32 nM))
C=CC(=O)N1CC(CCn2c(=O)ccc3cnc(Nc4ccc(N5CCN(C)CC5)cc4)nc32)C1 [Example 45]	E (E represents a pKi value of 7 or below (Ki of 100 nM or above))	E (E represents a pKi value of 7 or below (Ki of 100 nM or above))	E (E represents a pKi value of 7 or below (Ki of 100 nM or above))	B (B represents pKi value between 9 and 10 (Ki between 1 nM and 0.1 nM))	A (A represents a value of 3 or above)	B (B represents a pC50 value between 6.7 (included) and 7.5 (IC50 between 200 nM and 32 nM))
